Laboratory results taken from patent publication US20170223976A1, “MODIFIED MILK POWDER CONTAINING 1,5-ANHYDRO-D-GLUCITOL” (NIHON STARCH CO., LTD., priority 2015, published 2017).

How the values were obtained:
PSG-1 gene [1] = experiment: PSG-1 gene expression in intestinal tract cells (Caco-2), real-time RT-PCR; type: cell-based; details: Caco-2 cells; for expression level of PSG-1 gene relative to non-added section: 3 days
Protocol: PSG-1 is a gene which is expressed in placental cells in large quantities in pregnancy. The influence of 1,5-AG upon the expression of PSG-1 in intestinal tract cells which is not connected with pregnancy was investigated.
A test was carried out at five concentrations (1.6, 8, 40, 200 and 1,000 μg/mL) of 1,5-AG. Stated more specifically, a 1,5-AG aqueous solution having a concentration of 100 mg/mL was diluted with water to prepare 100 times-concentrated solutions having concentrations of 0.16, 0.8, 4, 20 and 100 mg/mL. These 100 times-concentrated solutions were each added to a medium in a ratio of 1/100 to achieve final concentrations of […] and sterilized with a filter to be used in the test. As a negative control, water was added to a medium in a ratio of 1/100 and sterilized with a filter to be used in the test.
A medium was used to adjust Caco-2 cells to a concentration of 1×10^5 cells/0.3 mL/well, and the cells were scattered on a 48-well plate to be cultured in a CO2 incubator (5% CO2, 37° C.) for 14 days (medium was exchanged every other day). After culture, it was confirmed that the cells were differentiated into intestinal epidermoid cells, the medium was replaced by a sample-containing test medium and a control-containing test medium to culture the cells in a CO2 incubator for 3 days, and total RNA was extracted from the cells to analyze the expression level of PSG-1 gene. These procedures were repeated five times each.
Total RNA was extracted by using the FastLane Cell cDNA kit. […]
The synthesis of cDNA was carried out by using the QuantiTect reverse transcription kit. […]
Real-time PCT was carried out by an intercalator method using SYBR Green I. Stated more specifically, a total of an 8 μL system consisting of 1 μL of synthesized cDNA, 2.6 μL of dsH2O, 4 μL of SYBR Premix ExTag, 0.2 μL of Forward primer (5 μM) and 0.2 μL of Reverse primer (5 μM) was used. […] The relative expression level was calculated by the ? […]

PSG-1 gene [2] = experiment: PSG-1 gene expression in placental trophoblastic cells, real-time RT-PCR; type: cell-based, human; details: for expression level of PSG-1 gene relative to non-added section: after 72 hours
Protocol: The influence upon these two genes (PSG-1 and CSH-1) of 1,5-AG was analyzed by a real-time RT-PCR method using placental trophoblastic cells. As a preliminary study, the expression level of PSG-1 was analyzed at three concentrations (1 μg/mL or less, 40 μg/mL and 160 μg/mL of 1,5-AG) and for three sampling times (3, 24 and 72 hours). A test was conducted by the following method.
Human placental villous trophoblastic cells (ScienCell Research Laboratories)
The human placental villous trophoblastic cells were initiated in a T-75 flask by using a trophoblast medium (to be simply referred to as “medium” hereinafter) to be cultured in a CO2 incubator (5% CO2, 37° C., moistening). Medium exchange was carried out every 2 days, the cells were collected when 80% confluence was reached, and cells having a passage number of 2 were used in this test. Stated more specifically, after the cells were washed with D-PBS (−), the cells were separated by using 0.25% trypsin-EDTA, and a medium was added to neutralize trypsin. Then, the supernatant was removed by centrifugation (180 g, 5 minutes), a new medium was added to stir the cells, the number of the cells was counted by using a corpuscle calculating board, and a medium was used to achieve a target concentration (4.0×10^3 cells/100 μL).
The sample was added to mediums to achieve 1,5-AG final concentrations of 40 μg/mL and 160 μg/mL. When the final concentration was not more than 1 μg/mL, 1,5-AG was not added. Stated more specifically, a 1,5-AG aqueous solution having a concentration of 40 mg/mL was added to a test medium in a ratio of 1/1000 or 1/250 to achieve a final concentration of 40 μg/mL or 160 μg/mL, and the 1,5-AG solution was sterilized with a filter to be used in the test. […]
The PCR reaction was carried out under the conditions of 95° C.·30 sec−(95° C.·10 sec−60° C.·30 sec)×45 cycles−95° C.·15 sec−55° C.·15 sec−95° C.·15 sec, and the dissociation curve of the PCR product was obtained after the end of the PCR reaction. The relative expression level was calculated by the ? […]

SMILES: OC[C@H]1OC[C@H](O)[C@@H](O)[C@@H]1O [1,5-AG, 1,5-anhydro-D-glucitol]
- expression level of PSG-1 gene relative to non-added section (PSG-1 gene [1]; 8 μg/mL): 1.31 times
- expression level of PSG-1 gene relative to non-added section (PSG-1 gene [1]; 40 μg/mL): 1.34 times
- average expression level of PSG-1 gene versus non-added section (PSG-1 gene [1]; 3 days, 1,5-AG added section): tends to become higher
- expression level of PSG-1 gene relative to non-added section (PSG-1 gene [2]; 40 μg/mL 1,5-AG): 1.54 times
- expression level of PSG-1 gene relative to non-added section (PSG-1 gene [2]; 160 μg/mL 1,5-AG): 1.62 times
- expression level of PSG-1 gene over treatment time (PSG-1 gene [2]; 1,5-AG added sections, 3, 24 and 72 hours): rose in proportion to the sample treatment time
